Data from US7671028B2, “Peptides that antagonize FPR class receptor mediated signaling” (POSTECH Foundation, priority 2004, dated 2010).
Where a SMILES comes first, the peptide text is derived from it. Where no end group is shown, it is not given here. [ ]: non-standard residue; d: D form.

Key:
FPRL1 = target: T1, FPRL1 (Homo sapiens, UniProt P25090); assay: WKYMVm-induced [Ca2+]i increase in FPRL1-expressing RBL-2H3 cells (fura-2); assay type: cell-based; details: inhibition of FPRL1 agonist-induced intracellular calcium increase; peptide added before agonist
T1 construct: expressed in transfected cells; host or cells: RBL-2H3 (rat basophilic leukaemia) cells
T1 sequence (P25090 1-351): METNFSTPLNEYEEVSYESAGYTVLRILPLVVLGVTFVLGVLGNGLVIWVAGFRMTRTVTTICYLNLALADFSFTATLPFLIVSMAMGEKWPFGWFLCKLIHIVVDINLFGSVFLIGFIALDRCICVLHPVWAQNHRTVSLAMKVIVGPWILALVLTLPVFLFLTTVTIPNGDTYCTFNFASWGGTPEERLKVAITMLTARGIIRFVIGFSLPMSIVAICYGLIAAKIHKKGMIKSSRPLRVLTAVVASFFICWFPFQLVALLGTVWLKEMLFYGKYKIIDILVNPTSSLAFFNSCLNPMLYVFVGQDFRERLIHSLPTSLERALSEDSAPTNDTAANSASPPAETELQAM
Procedure: FIGS. 3A-3B show effects of WRW^4 (SEQ ID NO:4) on the WKYMVm (SEQ ID NO:3)-induced [Ca^2+]i rise in FPRL1 expressing RBL-2H3 cells. Fura-2-loaded FPRL1-expressing RBL-2H3 cells were stimulated with vehicle or WRW^4 (SEQ ID NO:4) (10 μM) and then with WKYMVm (SEQ ID NO:3) (10 nM); or FPRL1-expressing RBL-2H3 cells were sensitized with DNP-specific IgE, loaded with fura-2, and activated with the antigen DNP-HSA (1 μg/ml). The changes in 340 nm/380 nm were monitored. The results are representative of three independent experiments (A). Cells were stimulated with various concentrations of WRW^4 (SEQ ID NO:4) prior to adding 10 nM of WKYMVm (SEQ ID NO:3) or 1 μg/ml of DNP-HSA. Peak levels of [Ca^2+]i increase were monitored. The results shown are the means±SE of four independent experiments (B).
Intracellular calcium concentration ([Ca^2+]i) levels were determined by Grynkiewicz's method using fura-2/AM (25). Briefly, prepared cells were incubated with 3 μM fura-2/AM at 37° C. for 50 min in fresh serum free RPMI 1640 medium with continuous stirring. For DNP-HSA stimulation, RBL-2H3 cells were sensitized with 1 μg/ml mouse DNP-specific IgE overnight prior to fura-2 loading (26), and 2×10^6 cells were aliquoted for each assay in Ca^2+ free Locke's solution (154 mM NaCl, 5.6 mM KCl, 1.2 mM MgCl2, 5 mM HEPES, pH 7.3, 10 mM glucose, and 0.2 mM EGTA). The fluorescence changes at excitation wavelengths of 340 nm and 380 nm and a common emission wavelength of 500 nm were measured, and the calibrated fluorescence ratio was converted to [Ca^2+]i.
The stimulation of FPRL1 by WKYMVm (SEQ ID NO:3) elicited a [Ca^2+]i increase in FPRL1-expressing RBL-2H3 cells (FIG. 3A). To investigate whether the inventive peptides inhibited WKYMVm (SEQ ID NO:3)-induced [Ca^2+]i increase, we stimulated fura-2 loaded FPRL1-expressing RBL-2H3 cells with various concentrations of WRW^4 (SEQ ID NO:4), and subsequently stimulated with effective concentration of WKYMVm (SEQ ID NO:3). […] To confirm specific inhibition by WRW^4 (SEQ ID NO:4) on FPRL1-induced signaling, we examined the effect of WRW^4 (SEQ ID NO:4) on another extracellular signal-induced [Ca^2+]i increase. FcεRI cross-linking has been reported to induce a [Ca^2+]i increase in RBL-2H3 cells (26). Stimulation of FPRL1-expressing RBL-2H3 cells (sensitized with 1 μg/ml mouse DNP-specific IgE) with 1 μg/ml DNP-HSA caused a dramatic increase in [Ca^2+]i (FIG. 3A).
Methods and principles of assaying for the effects of a set of diverse peptides on the intracellular concentration of calcium when the peptides are contacted with the cells bearing FPRL1 before the FPRL1 agonist is added is described in Example 1.5 above, and further details of initial experimentation using the peptides is described in Example 2.2.

human neutrophils = assay: Superoxide generation in human neutrophils (cytochrome c reduction); assay type: cell-based; details: agonist alone, concentration-dependent
Procedure: FIGS. 7A-7D show effects of WRW^4 (SEQ ID NO:4) on the Aβ42-induced superoxide generation and chemotaxis in human neutrophils. […] Cytochrome c reduction was monitored, as described in EXAMPLES. The results shown are representative of four independent experiments (A, B). Chemotaxis assays were performed using a modified Boyden chamber assay, as described in EXAMPLES. […] The data are presented as mean±SE of three independent experiments each performed in duplicate (C, D).
Superoxide anion generation was determined by measuring cytochrome c reduction using a microtiter 96 well plate ELISA reader (Bio-Tekinstruments, EL312e, Winooski, Vt.) as previously described (23). Human neutrophils (1×10^6 cells/100 μl of RPMI 1640 medium per well of a 96-well plate) were preincubated with 50 μM cytochrome c at 37° C. for 1 min and then incubated with the indicated concentrations of peptides. Superoxide generation was determined for the change in light absorption at 550 nm over 5 minutes at 1 min intervals.
Superoxide generation is one of the important functions of phagocytic leukocytes like neutrophils (28).

Row | Molecule | IC50 (FPRL1) | peptide concentration of maximal superoxide generating effect (human neutrophils)
1 | NC(=O)[C@@H](Cc1c[nH]c2ccccc12)NC(=O)[C@H](Cc1c[nH]c2ccccc12)NC(=O)[C@H](Cc1c[nH]c2ccccc12)NC(=O)[C@H](Cc1c[nH]c2ccccc12)NC(=O)[C@H](Cc1c[nH]c2ccccc12)NC(=O)[C@@H](N)Cc1c[nH]c2ccccc12 [SEQ ID NO:32] (H-WWWWW[dW]-NH2) | > 10 µM | 
2 | WWWWWW-NH2 [SEQ ID NO:31] | > 10 µM | 
3 | N=C(N)NCCC[C@H](NC(=O)[C@@H](N)Cc1c[nH]c2ccccc12)C(=O)N[C@@H](Cc1c[nH]c2ccccc12)C(=O)N[C@@H](Cc1c[nH]c2ccccc12)C(N)=O [SEQ ID NO:34] (H-WRWW-NH2) | > 10 µM | 
4 | Aβ42: amyloid β42 peptide, cleavage fragment of amyloid precursor protein, endogenous ligand for FPRL1 |  | 40 µM
5 | N=C(N)NCCC[C@H](NC(=O)[C@@H](N)Cc1c[nH]c2ccccc12)C(=O)N[C@@H](Cc1c[nH]c2ccccc12)C(N)=O [SEQ ID NO:7] (H-Trp-Arg-Trp-NH2) | > 10 µM | 
6 | N=C(N)NCCC[C@H](N)C(=O)N[C@@H](Cc1c[nH]c2ccccc12)C(=O)N[C@@H](Cc1c[nH]c2ccccc12)C(=O)N[C@H](Cc1c[nH]c2ccccc12)C(N)=O [SEQ ID NO:36] (H-RWW[dW]-NH2) | > 10 µM | 
7 | NC(=O)[C@@H](Cc1c[nH]c2ccccc12)NC(=O)[C@H](Cc1c[nH]c2ccccc12)NC(=O)[C@H](Cc1c[nH]c2ccccc12)NC(=O)[C@@H](N)Cc1c[nH]c2ccccc12 [SEQ ID NO:35] (H-WWW[dW]-NH2) | > 10 µM | 
8 | CSCC[C@H](NC(=O)[C@H](Cc1c[nH]c2ccccc12)NC(=O)[C@H](Cc1c[nH]c2ccccc12)NC(=O)[C@H](CCCNC(=N)N)NC(=O)[C@H](Cc1c[nH]c2ccccc12)NC(=O)[C@H](N)Cc1c[nH]c2ccccc12)C(N)=O [wWRWWM] (H-[dW]WRWWM-NH2) | 0.0082 ± 0.0006 µM | 
9 | WRRWWW-NH2 [SEQ ID NO:33] | > 10 µM | 
10 | H-WRWWWW-NH2 [SEQ ID NO:4, Trp-Arg-Trp-Trp-Trp-Trp-CONH2] | 1 ± 0.21 µM | 
